Experimental data: ChEMBL document CHEMBL1201862, “PubChem BioAssay data set” (2004)
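Briefly, cells in 96-well plates were exposed to five compound concentrations for 48 h, and endpoints were estimated by linear interpolation. The concentration for 50% growth inhibition is given as GI50.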 Activity calls are given as the source filed them. Rule as the data show it: active = GI50 up to about 1.1 µM and inactive = higher.

How the values were obtained:
Assay in all cases: DTP human tumour cell line panel, 48 h
DLD-1 = tested on: DLD-1
DMS-114 = tested on: DMS-114
DMS-273 = tested on: DMS-273
KM-20L2 = tested on: KM-20L2
LXFL 529 = tested on: LXFL 529
RXF 631 = tested on: RXF 631
SNB-78 = tested on: SNB-78
HOP-18 = tested on: HOP-18
XF498 = tested on: XF498

Compound | GI50 (DLD-1) | GI50 (DMS-114) | GI50 (DMS-273) | GI50 (KM-20L2) | GI50 (LXFL 529) | GI50 (RXF 631) | GI50 (SNB-78) | GI50 (HOP-18) | GI50 (XF498)
COC1=CC(=O)c2c(ccc3ncnc(N)c23)C1=O | 2.08 µM (inactive) | 1.77 µM (inactive) | 3.32 µM (inactive) | 18.8 µM (inactive) | 1.75 µM (inactive) | 4.82 µM (inactive) | 2.36 µM (inactive) | – | –
COC(=O)CCC(=O)C(CC(=O)OC)C(=O)CCC(=O)NCCc1ccccc1 (stereo not given) | – | – | > 100 µM (inactive) | > 100 µM (inactive) | > 100 µM (inactive) | > 100 µM (inactive) | > 100 µM (inactive) | > 100 µM (inactive) | –
N=c1n(CC(=O)NC23CC4CC(CC(C4)C2)C3)c2ccccc2n1CC(=O)NC12CC3CC(CC(C3)C1)C2 | 1.9 µM (inactive) | 1.93 µM (inactive) | 1.83 µM (inactive) | 1.81 µM (inactive) | 2.04 µM (inactive) | – | 2.91 µM (inactive) | 2.03 µM (inactive) | 1.52 µM (inactive)
N=C(CC(=O)Nc1ccc(Cl)cc1)Nc1ccccc1 | > 100 µM (inactive) | – | > 100 µM (inactive) | > 100 µM (inactive) | > 100 µM (inactive) | – | > 100 µM (inactive) | – | > 100 µM (inactive)
CSC(C1c2ccccc2N(C)C2=NC(=O)N(C)C(=O)C21Cl)S(=O)(=O)c1ccc(C)cc1 (stereo not given) | 40.9 µM (inactive) | 49.1 µM (inactive) | 27.3 µM (inactive) | > 100 µM (inactive) | 22.2 µM (inactive) | 39.6 µM (inactive) | 46.9 µM (inactive) | 83.2 µM (inactive) | > 100 µM (inactive)
O=c1c2cc(Br)cc(Br)c2nc(CCCl)n1-c1ccc(O)c([N+](=O)[O-])c1 | 18.9 µM (inactive) | 19.1 µM (inactive) | 21.5 µM (inactive) | – | 16.1 µM (inactive) | – | 32.4 µM (inactive) | 16.7 µM (inactive) | –
C/C(=N/NS(=O)(=O)c1ccc(C)cc1)c1cccc[n+]1[O-] | > 100 µM (inactive) | > 100 µM (inactive) | > 100 µM (inactive) | > 100 µM (inactive) | > 100 µM (inactive) | > 100 µM (inactive) | > 100 µM (inactive) | > 100 µM (inactive) | > 100 µM (inactive)
Cc1cc(C)c(C(=O)c2no[n+]([O-])c2C(=O)c2c(C)cc(C)c(Br)c2C)c(C)c1Br | 14.2 µM (inactive) | 10.8 µM (inactive) | 18.5 µM (inactive) | 16.2 µM (inactive) | 11.2 µM (inactive) | 13.6 µM (inactive) | 18.6 µM (inactive) | – | –
C/C(CC(=O)CCCC(=O)Nc1ccc(Cl)cc1Cl)=N/NC(=O)CC#N | > 100 µM (inactive) | > 100 µM (inactive) | > 100 µM (inactive) | > 100 µM (inactive) | > 100 µM (inactive) | > 100 µM (inactive) | > 100 µM (inactive) | > 100 µM (inactive) | > 100 µM (inactive)
O=C(O)c1ccc2c(c1)C(=O)N(c1ccc(S(=O)(=O)c3ccc(N4C(=O)c5ccc(C(=O)O)cc5C4=O)cc3)cc1)C2=O | – | > 100 µM (inactive) | > 100 µM (inactive) | > 100 µM (inactive) | > 100 µM (inactive) | – | > 100 µM (inactive) | – | > 100 µM (inactive)
CCOc1ccccc1NC(=O)CSc1nnc(Cc2ccccc2)o1 | 23.4 µM (inactive) | 17.6 µM (inactive) | 22.7 µM (inactive) | 38.1 µM (inactive) | 16.6 µM (inactive) | – | 81.5 µM (inactive) | 20.4 µM (inactive) | –
CCCCCCCCCCCc1nnc(N)o1 | > 100 µM (inactive) | – | > 100 µM (inactive) | > 100 µM (inactive) | > 100 µM (inactive) | 82 µM (inactive) | > 100 µM (inactive) | – | > 100 µM (inactive)
COc1cc(C(=O)C/C(CCC(=O)Nc2ccccc2[N+](=O)[O-])=N\NC(=O)C(N)=O)ccc1O | > 100 µM (inactive) | > 100 µM (inactive) | > 100 µM (inactive) | > 100 µM (inactive) | > 100 µM (inactive) | > 100 µM (inactive) | > 100 µM (inactive) | > 100 µM (inactive) | –
CC1CC#CCOC(=O)CCCC1=O (stereo not given) | > 100 µM (inactive) | > 100 µM (inactive) | > 100 µM (inactive) | > 100 µM (inactive) | > 100 µM (inactive) | – | > 100 µM (inactive) | > 100 µM (inactive) | > 100 µM (inactive)
CCCCC1NC=Nc2c1ccc1c2[nH]c2ccccc21 (stereo not given) | 2.47 µM (inactive) | 1.76 µM (inactive) | 1.7 µM (inactive) | – | 1.88 µM (inactive) | 2.6 µM (inactive) | 13 µM (inactive) | 10.2 µM (inactive) | 1.89 µM (inactive)
CCn1c(=O)nc2n(-c3ccc(SC)cc3)c3ccccc3nc-2c1=O | > 100 µM (inactive) | 69.7 µM (inactive) | 71.1 µM (inactive) | 40.5 µM (inactive) | > 100 µM (inactive) | > 100 µM (inactive) | > 100 µM (inactive) | > 100 µM (inactive) | –
C[N+](C)=c1[nH]c2ccccc2[nH]1 | > 100 µM (inactive) | > 100 µM (inactive) | > 100 µM (inactive) | > 100 µM (inactive) | > 100 µM (inactive) | – | – | > 100 µM (inactive) | –
COc1cc2ccnc(-c3c4ccccc4c(N)c4c(OC)c(OC)ccc34)c2cc1OC | 3.04 µM (inactive) | 2.59 µM (inactive) | 1.53 µM (inactive) | – | 3.6 µM (inactive) | – | 3.66 µM (inactive) | – | 2.64 µM (inactive)
O=P1(c2ccccc2)CCCCC1 | > 100 µM (inactive) | > 100 µM (inactive) | > 100 µM (inactive) | > 100 µM (inactive) | > 100 µM (inactive) | – | > 100 µM (inactive) | > 100 µM (inactive) | < 0.01 µM (active)
CC(=O)OCC1OC(n2cccnc2=O)C(OC(C)=O)C1OC(C)=O (stereo not given) | > 100 µM (inactive) | > 100 µM (inactive) | > 100 µM (inactive) | > 100 µM (inactive) | > 100 µM (inactive) | > 100 µM (inactive) | > 100 µM (inactive) | > 100 µM (inactive) | > 100 µM (inactive)
CC(=O)OC1(C)C(=O)OC1(C)C(C)=O (stereo not given) | > 100 µM (inactive) | > 100 µM (inactive) | > 100 µM (inactive) | > 100 µM (inactive) | > 100 µM (inactive) | > 100 µM (inactive) | > 100 µM (inactive) | > 100 µM (inactive) | –
Cc1cccc(O)c(=O)c1 | 24.1 µM (inactive) | 5.92 µM (inactive) | 7.41 µM (inactive) | 22.8 µM (inactive) | 29.9 µM (inactive) | – | > 100 µM (inactive) | > 100 µM (inactive) | –
COc1ccc(NC(=O)C2C(=O)N(c3ccc(OC)cc3)C(=O)/C2=N\NC(N)=O)cc1 (stereo not given) | – | 63.7 µM (inactive) | 43.6 µM (inactive) | 49.5 µM (inactive) | 39.9 µM (inactive) | – | 57.1 µM (inactive) | 21.2 µM (inactive) | –
C(=C1\CCC/C(=C/c2ccccc2)C1=NNc1ccccc1)/c1ccccc1 | > 100 µM (inactive) | > 100 µM (inactive) | > 100 µM (inactive) | > 100 µM (inactive) | > 100 µM (inactive) | > 100 µM (inactive) | > 100 µM (inactive) | > 100 µM (inactive) | –
CS(=O)(=O)NNS(=O)(=O)c1ccc(Br)cc1 | > 100 µM (inactive) | > 100 µM (inactive) | > 100 µM (inactive) | > 100 µM (inactive) | > 100 µM (inactive) | – | > 100 µM (inactive) | > 100 µM (inactive) | > 100 µM (inactive)
Cc1ccc2nc3c(Cl)cc(=O)cc-3sc2c1 | > 10 µM (inactive) | 20.4 µM (inactive) | 19.7 µM (inactive) | > 10 µM (inactive) | 18.7 µM (inactive) | 30.8 µM (inactive) | 39.2 µM (inactive) | 2.96 µM (inactive) | –
CCOC(=O)c1ccc(-n2c(SCC)nc3sc(C)c(C)c3c2=O)cc1 | > 100 µM (inactive) | > 100 µM (inactive) | > 100 µM (inactive) | > 100 µM (inactive) | – | – | > 100 µM (inactive) | > 100 µM (inactive) | > 100 µM (inactive)
COc1cc(C2c3cc4c(cc3[C@@H](Nc3ccc(N(C)C)cc3)[C@H]3COC(=O)C23)OCO4)cc(OC)c1O (stereo not given in full) | 1.73 µM (inactive) | 0.42 µM (active) | 0.116 µM (active) | 0.708 µM (active) | 2.15 µM (inactive) | – | 4.31 µM (inactive) | 1.85 µM (inactive) | 0.687 µM (active)
CC1(C)CCCC2(C)[C@@H]1CC[C@@]13CC(=O)[C@@](C)(CC[C@@H]21)C3 (stereo not given in full) | > 100 µM (inactive) | 46 µM (inactive) | 55.6 µM (inactive) | 72.3 µM (inactive) | 80.2 µM (inactive) | 78.3 µM (inactive) | > 100 µM (inactive) | – | –
